In patent US20260070913A1, “7-AMINO-3,4-DIHYDROPYRIMIDOPYRIMIDIN-2-ONE DERIVATIVE HAVING INHIBITORY ACTIVITY FOR PROTEIN KINASES AND THERAPEUTIC PHARMACEUTICAL COMPOSITION COMPRISING SAME” (KOREA INSTITUTE OF SCIENCE AND TECHNOLOGY, priority 2020, published 2026) one finds IC50 and GI50 data, which are given here for 13 molecules.

One test has as its target ACK1 (Homo sapiens, UniProt Q07912). Briefly: Inhibitory activity against ACK1 kinase. The format is biochemical. On the procedure:
(§1) The inhibitory activities of the compounds of the present disclosure against two kinases, GCK and ACK1, were measured, and the IC50 values thereof were calculated.

The next test concerns Ba/F3 (N-Ras G12D). Nature of the test: Proliferation inhibitory activity, mt-NRAS (G12D) Ba/F3 cell line. The format is cell-based. Particulars: Mus musculus, BaF3. On the procedure:
(§2) The inhibitory activities of the compounds of the present disclosure against the proliferation of the mt-NRAS (G12D) Ba/F3 and OCI-AML3 (mt-NRAS) cell lines were measured, and the […] values thereof were calculated.

The target in a further test is T1, GCK (Homo sapiens, UniProt Q12851).
T1 sequence (Q12851 1-820): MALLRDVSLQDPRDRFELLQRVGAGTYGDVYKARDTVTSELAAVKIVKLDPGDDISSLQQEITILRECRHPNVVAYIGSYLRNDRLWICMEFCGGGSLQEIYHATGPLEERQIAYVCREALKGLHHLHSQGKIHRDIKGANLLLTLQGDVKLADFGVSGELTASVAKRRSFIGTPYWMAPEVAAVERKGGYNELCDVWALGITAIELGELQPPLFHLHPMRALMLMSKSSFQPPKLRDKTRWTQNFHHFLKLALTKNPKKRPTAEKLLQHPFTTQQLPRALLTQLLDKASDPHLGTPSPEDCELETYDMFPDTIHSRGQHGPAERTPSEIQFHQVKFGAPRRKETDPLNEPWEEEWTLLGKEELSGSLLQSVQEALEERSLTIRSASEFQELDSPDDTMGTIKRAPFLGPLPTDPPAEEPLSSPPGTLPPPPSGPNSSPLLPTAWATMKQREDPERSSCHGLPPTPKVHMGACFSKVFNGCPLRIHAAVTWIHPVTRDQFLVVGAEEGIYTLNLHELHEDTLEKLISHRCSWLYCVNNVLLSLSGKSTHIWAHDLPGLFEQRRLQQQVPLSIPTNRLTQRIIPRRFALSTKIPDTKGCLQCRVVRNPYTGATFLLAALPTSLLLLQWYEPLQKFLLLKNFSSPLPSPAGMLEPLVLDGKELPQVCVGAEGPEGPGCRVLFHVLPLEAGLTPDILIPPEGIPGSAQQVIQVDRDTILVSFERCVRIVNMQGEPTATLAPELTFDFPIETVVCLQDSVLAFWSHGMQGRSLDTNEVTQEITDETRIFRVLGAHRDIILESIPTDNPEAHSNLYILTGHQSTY
Nature of the test: Inhibitory activity against GCK kinase. The format is biochemical. As to the method: as §1

The test system of a further test is OCI-AML3 (N-Ras Q61L). Briefly: Proliferation inhibitory activity, OCI-AML3 cell line. To be noted: Homo sapiens, OCI-AML-3. The format is cell-based. On the procedure: as §2
Referring to the results in Table 2, it can be seen that the compound of the present disclosure has inhibitory activity against the proliferation of the human acute myeloid leukemia cell line (OCI-AML3) having the NRAS mutant gene, and the effect thereof is remarkable. Therefore, it can be seen that the compound of the present disclosure is particularly effective as a therapeutic agent for acute myeloid leukemia (AML).

Some results are limits rather than exact numbers.

Sequence of ACK1 (Q07912 whole entry): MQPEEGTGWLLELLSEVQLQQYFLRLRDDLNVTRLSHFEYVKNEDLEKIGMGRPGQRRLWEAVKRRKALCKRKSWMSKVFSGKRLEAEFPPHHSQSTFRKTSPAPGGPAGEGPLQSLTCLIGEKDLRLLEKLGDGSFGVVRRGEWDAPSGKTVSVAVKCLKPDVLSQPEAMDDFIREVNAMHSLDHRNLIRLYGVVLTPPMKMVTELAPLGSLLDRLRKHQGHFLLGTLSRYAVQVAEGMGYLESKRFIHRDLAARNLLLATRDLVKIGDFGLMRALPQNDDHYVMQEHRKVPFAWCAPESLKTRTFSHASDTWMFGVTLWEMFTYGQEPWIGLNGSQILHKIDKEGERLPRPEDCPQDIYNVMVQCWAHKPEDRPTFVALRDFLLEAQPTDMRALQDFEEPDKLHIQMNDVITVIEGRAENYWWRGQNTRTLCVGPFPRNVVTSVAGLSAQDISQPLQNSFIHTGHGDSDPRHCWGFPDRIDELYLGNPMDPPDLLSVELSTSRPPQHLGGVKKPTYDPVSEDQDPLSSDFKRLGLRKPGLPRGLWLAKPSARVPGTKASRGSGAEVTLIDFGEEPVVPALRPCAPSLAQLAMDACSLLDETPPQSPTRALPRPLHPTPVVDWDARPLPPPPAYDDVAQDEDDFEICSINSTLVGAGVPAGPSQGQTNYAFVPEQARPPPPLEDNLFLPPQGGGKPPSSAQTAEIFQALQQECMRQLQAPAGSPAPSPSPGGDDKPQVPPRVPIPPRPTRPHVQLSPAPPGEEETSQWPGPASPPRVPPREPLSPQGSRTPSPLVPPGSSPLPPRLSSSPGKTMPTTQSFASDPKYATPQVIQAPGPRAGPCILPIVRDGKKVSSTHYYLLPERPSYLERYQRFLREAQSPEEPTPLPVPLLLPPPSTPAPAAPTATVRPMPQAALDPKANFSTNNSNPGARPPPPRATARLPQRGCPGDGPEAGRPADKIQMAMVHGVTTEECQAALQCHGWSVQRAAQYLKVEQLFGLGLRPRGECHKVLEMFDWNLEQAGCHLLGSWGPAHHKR

Broadly, the IC50 is the concentration needed to halve the response being measured. Usually GI50 stands for the concentration at which growth is held to half of that of the control. A high value points to lower sensitivity of the cells. For `COc1ccccc1-c1cnc(-c2ccc(C)c(N3Cc4cnc(Nc5cnn(C)c5)nc4N(C)C3=O)c2)[nH]1` [Compound No. 1, 3-(5-(5-(2-methoxyphenyl)-1H-imidazol-2-yl)-2-methylphenyl)-1-methyl-7-((1-methyl-1H-pyrazol-4-yl)amino)-3,4-dihydropyrimido[4,5-d]pyrimidin-2(1H)-one], the IC50 at ACK1 is less than 100 nM; against GCK it was 100 to 1000 nM. Moreover, the GI50 in the test on Ba/F3 (N-Ras G12D) and in the test with OCI-AML3 (N-Ras Q61L) was less than 0.5 µM in each case.
Consider `COc1ccccc1-c1cnc(-c2ccc(C)c(N3Cc4cnc(Nc5ccc(C)nc5)nc4N(C)C3=O)c2)[nH]1` [Compound No. 3, 3-(5-(5-(2-methoxyphenyl)-1H-imidazol-2-yl)-2-methylphenyl)-1-methyl-7-((6-methylpyridin-3-yl)amino)-3,4-dihydropyrimido[4,5-d]pyrimidin-2(1H)-one], for which the IC50 against ACK1 is less than 100 nM; on GCK, 100 to 1000 nM. Also, the 50% growth inhibitory concentration (GI50) with Ba/F3 (N-Ras G12D) and in the test with OCI-AML3 (N-Ras Q61L) was less than 0.5 µM throughout.
In the case of `CCN1CCC(n2cc(Nc3ncc4c(n3)N(C)C(=O)N(c3cc(-c5ncc(-c6ccccc6OC)[nH]5)ccc3C)C4)cn2)CC1` [Compound No. 4, 7-((1-(1-ethylpiperidin-4-yl)-1H-pyrazol-4-yl)amino)-3-(5-(5-(2-methoxyphenyl)-1H-imidazol-2-yl)-2-methylphenyl)-1-methyl-3,4-dihydropyrimido[4,5-d]pyrimidin-2(1H)-one], the IC50 against ACK1 is less than 100 nM; at GCK, 100 to 1000 nM. For the same molecule, the GI50 in the test with Ba/F3 (N-Ras G12D) and with OCI-AML3 (N-Ras Q61L) was less than 0.5 µM throughout.
For the molecule `CCN1CCC(c2ccc(Nc3ncc4c(n3)N(C)C(=O)N(c3cc(-c5ncc(-c6ccccc6OC)[nH]5)ccc3C)C4)cn2)CC1` [Compound No. 5, 7-((6-(1-ethylpiperidin-4-yl)pyridin-3-yl)amino)-3-(5-(5-(2-methoxyphenyl)-1H-imidazole-2-yl)-2-methylphenyl)-1-methyl-3,4-dihydropyrimido[4,5-d]pyrimidin-2(1H)-one], the 50% inhibitory concentration (IC50) is less than 100 nM against ACK1 and 100 to 1000 nM against GCK. Moreover, the GI50 in the test with Ba/F3 (N-Ras G12D) and in the test with OCI-AML3 (N-Ras Q61L) was less than 0.5 µM in each case.
Take `COc1ccccc1-c1cnc(-c2ccc(C)c(N3Cc4cnc(Nc5ccc(N6CCN(C(C)=O)CC6)nc5)nc4N(C)C3=O)c2)[nH]1` [Compound No. 6, 7-((6-(4-acetylpiperazin-1-yl)pyridin-3-yl)amino)-3-(5-(5-(2-methoxyphenyl)-1H-imidazol-2-yl)-2-methylphenyl)-1-methyl-3,4-dihydropyrimido[4,5-d]pyrimidin-2(1H)-one]: the figures for the concentration for half-maximal inhibition (IC50) on ACK1 and at GCK were less than 100 nM and 1000 to 10000 nM, respectively. Moreover, the GI50 in the test with Ba/F3 (N-Ras G12D) and in the test with OCI-AML3 (N-Ras Q61L) was less than 0.5 µM each time.
On to `COc1ccccc1-c1cnc(-c2ccc(C)c(N3Cc4cnc(Nc5cnn(C6CCN(C(C)=O)CC6)c5)nc4N(C)C3=O)c2)[nH]1` [Compound No. 7, 7-((1-(1-acetylpiperidin-4-yl)-1H-pyrazol-4-yl)amino)-3-(5-(5-(2-methoxyphenyl)-1H-imidazol-2-yl)-2-methylphenyl)-1-methyl-3,4-dihydropyrimido[4,5-d]pyrimidin-2(1H)-one], for which the IC50 against ACK1 was less than 100 nM; on GCK, 100 to 1000 nM. Further, the GI50 in the test with Ba/F3 (N-Ras G12D) and in the test on OCI-AML3 (N-Ras Q61L) was less than 0.5 µM each time.
Turning to `Cc1ccc(Nc2ncc3c(n2)N(C)C(=O)N(c2cc(-c4ncc(-c5ccccc5OC(F)(F)F)[nH]4)ccc2C)C3)cn1` [Compound No. 9, 1-methyl-3-(2-methyl-5-(5-(2-(trifluoromethoxy)phenyl)-1H-imidazol-2-yl)phenyl)-7-((6-methylpyridin-3-yl)amino)-3,4-dihydropyrimido[4,5-d]pyrimidin-2(1H)-one], the values for the IC50 against ACK1 and at GCK were 100 to 1000 nM and greater than 10000 nM, respectively. Also, the figures for the GI50 in the test on Ba/F3 (N-Ras G12D) and with OCI-AML3 (N-Ras Q61L) were less than 0.5 µM and 0.5 to 3 µM, respectively.
Turning to `CCN1CCC(n2cc(Nc3ncc4c(n3)N(C)C(=O)N(c3cc(-c5ncc(-c6ccccc6OC(F)(F)F)[nH]5)ccc3C)C4)cn2)CC1` [Compound No. 10, 7-((1-(1-ethylpiperidin-4-yl)-1H-pyrazol-4-yl)amino)-1-methyl-3-(2-methyl-5-(5-(2-(trifluoromethoxy)phenyl)-1H-imidazol-2-yl)phenyl)-3,4-dihydropyrimido[4,5-d]pyrimidin-2(1H)-one], the IC50 at ACK1 is less than 100 nM; at GCK it was 100 to 1000 nM. Moreover, the 50% growth inhibitory concentration (GI50) with Ba/F3 (N-Ras G12D) and in the test on OCI-AML3 (N-Ras Q61L) was less than 0.5 µM in each case.
As for `Cc1ccc(-c2ncc(-c3cccc(F)c3F)[nH]2)cc1N1Cc2cnc(NC3CC3)nc2N(C)C1=O` [Compound No. 11, 7-(cyclopropylamine)-3-(5-(5-(2,3-difluorophenyl)-1H-imidazol-2-yl)-2-methylphenyl)-1-methyl-3,4-dihydropyrimido[4,5-d]pyrimidin-2(1H)-one], the half-maximal inhibitory concentration (IC50) against ACK1 is 1000 to 10000 nM; at GCK, greater than 10000 nM. For the same molecule, the GI50 in the test with Ba/F3 (N-Ras G12D) and with OCI-AML3 (N-Ras Q61L) was 0.5 to 3 µM each time.
With `Cc1ccc(Nc2ncc3c(n2)N(C)C(=O)N(c2cc(-c4ncc(-c5cccc(F)c5F)[nH]4)ccc2C)C3)cn1` [Compound No. 12], the IC50 at ACK1 is 100 to 1000 nM; against GCK, greater than 10000 nM. The figures for the 50% growth inhibitory concentration (GI50) in the test on Ba/F3 (N-Ras G12D) and in the test with OCI-AML3 (N-Ras Q61L) were 0.5 to 3 µM and less than 0.5 µM, respectively.
Take `Cc1ccc(Nc2ncc3c(n2)N(C)C(=O)N(c2cc(-c4ncc(-c5cccc(C(F)(F)F)c5)[nH]4)ccc2C)C3)cn1` [Compound No. 13, 1-methyl-3-(2-methyl-5-(5-(3-(trifluoromethyl)phenyl)-1H-imidazol-2-yl)phenyl)-7-((6-methylpyridin-3-yl)amino)-3,4-dihydropyrimido[4,5-d]pyrimidin-2(1H)-one]: the IC50 was 1000 to 10000 nM against ACK1 and greater than 10000 nM against GCK. Besides, the GI50 is 3 to 5 µM in the test with Ba/F3 (N-Ras G12D) and less than 0.5 µM in the test with OCI-AML3 (N-Ras Q61L).
For `CC(=O)N1CCN(c2ccc(Nc3ncc4c(n3)N(C)C(=O)N(c3cc(-c5ncc(-c6ccccc6OC(F)(F)F)[nH]5)ccc3C)C4)cn2)CC1` [Compound No. 14, 7-((6-(4-acetylpiperazin-1-yl)pyridin-3-yl)amino)-1-methyl-3-(2-methyl-5-(5-(2-(trifluoromethoxy)phenyl)-1H-imidazol-2-yl)phenyl)-3,4-dihydropyrimido[4,5-d]pyrimidin-2(1H)-one], in that order: 100 to 1000 nM, 100 to 1000 nM, 0.5 to 3 µM and 0.5 to 3 µM.
For `Cc1ccc(-c2ncc(-c3ccccc3OC(F)(F)F)[nH]2)cc1N1Cc2cnc(Nc3ccc(N4CCOCC4)cc3)nc2N(C)C1=O` [Compound No. 18, 1-methyl-3-(2-methyl-5-(5-(2-(trifluoromethoxy)phenyl)-1H-imidazol-2-yl)phenyl)-7-((4-morpholinophenyl)amino)-3,4-dihydropyrimido[4,5-d]pyrimidin-2(1H)-one], in that order: less than 100 nM, 1000 to 10000 nM, 0.5 to 3 µM and greater than 5 µM.
